Measured values reported in the supplement of paper PMC11208160.

Assay: recombinant barcode read abundance after kanamycin selection (control-corrected) (log10(CPM+1)); higher = more efficient recombination; sequences stand for … in AGTGCAGAGAAAATCGGCCAGTTTTCTCTGCCTGCAGTCCGCATGCCGT…AGATTTATGCAGCGGACTGCCTTTCTCCCAAAGTGATAAACCGGACAGTATCATGGACCGGTTTTCCCGGTAATCCGTATTTGCAAGGTTGGTTTCACT; site = the 11-nt target
Procedure, shortened: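 Recombination efficiency comes from barcode counts at recombinant junctions, converted to counts per million, averaged and corrected against the control. Values appear as log10(CPM+1). They were obtained from a pooled E. coli screen in which each oligo paired a target with an IS621 bridge RNA target-binding loop, and cells were plated in duplicate on chloramphenicol/ampicillin LB agar or on chloramphenicol/ampicillin/kanamycin with 0.1 mM IPTG.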
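Note: IS621 recombinase and bridge RNA in Escherichia coli cells.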

Sequence | recombinant barcode read abundance (log10)
GCGGAGTCTTGGGTTCTAACCTGTTGCGT (site GCTAAGTCTAC) | 0.0484
GCGGATCCTTGGGTTCTAACCTGTTGCCT (site GCGAATCCTAG) | 0.824
GCGGATCCTTGGGTTCTAACCTGTTGCCT (site GCGCATCCTAG) | 0.0111
GCGGATCCTTGGGTTCTAACCTGTTGCCT (site GCGGATCCTAG) | 2.11
GCGGATCCTTGGGTTCTAACCTGTTGCCT (site GCGTATCCTAG) | 1.05
GCGGCGACTTGGGTTCTAACCTGTTGCCT (site GCAGCGACTAG) | 0.291
GCGGCGACTTGGGTTCTAACCTGTTGCCT (site GCCGCGACTAG) | 0.162
GCGGCGACTTGGGTTCTAACCTGTTGCCT (site GCGGCGACTAG) | 0.891
GCGGCGACTTGGGTTCTAACCTGTTGCCT (site GCTGCGACTAG) | 0.0436
GCGGGATCTTGGGTTCTAACCTGTTGCCT (site ACGGGATCTAG) | 0.765
GCGGGATCTTGGGTTCTAACCTGTTGCCT (site CCGGGATCTAG) | 0.258
GCGGGATCTTGGGTTCTAACCTGTTGCCT (site GCGGGATCTAG) | 1.06
GCGGGATCTTGGGTTCTAACCTGTTGCCT (site TCGGGATCTAG) | 0.174
GCGGGGTCTTGGGTTCTAACCTGTTGCTT (site GCAGGGTCTAA) | 2.65
GCGGGGTCTTGGGTTCTAACCTGTTGCTT (site GCCGGGTCTAA) | 0.124
GCGGGGTCTTGGGTTCTAACCTGTTGCTT (site GCGGGGTCTAA) | 2.2
GCGGGGTCTTGGGTTCTAACCTGTTGCTT (site GCTGGGTCTAA) | 0.783
GCGGGTCCTTGGGTTCTAACCTGTTGCCT (site GCAGGTCCTAG) | 2.24
GCGGGTCCTTGGGTTCTAACCTGTTGCCT (site GCCGGTCCTAG) | 0.213
GCGGGTCCTTGGGTTCTAACCTGTTGCCT (site GCGGGTCCTAG) | 2.15
GCGGGTCCTTGGGTTCTAACCTGTTGCCT (site GCTGGTCCTAG) | 0.532
GCGTCACCTTGGGTTCTAACCTGTTGCCT (site ACGTCACCTAG) | 0.0445

Sequence | recombinant barcode read abundance (log10)
GCGTCACCTTGGGTTCTAACCTGTTGCCT (site CCGTCACCTAG) | 0.0376
GCGTCACCTTGGGTTCTAACCTGTTGCCT (site GCGTCACCTAG) | 0.394
GCGTCACCTTGGGTTCTAACCTGTTGCCT (site TCGTCACCTAG) | 0.382
GCGTGAGCTTGGGTTCTAACCTGTTGCCT (site GCATGAGCTAG) | 1.07
GCGTGAGCTTGGGTTCTAACCTGTTGCCT (site GCCTGAGCTAG) | 0.151
GCGTGAGCTTGGGTTCTAACCTGTTGCCT (site GCGTGAGCTAG) | 0.676
GCGTGAGCTTGGGTTCTAACCTGTTGCCT (site GCTTGAGCTAG) | 0.0594
GCGTGTCCTTGGGTTCTAACCTGTTGCCA (site CCGTGTCCTCG) | 0.0431
GCGTGTCCTTGGGTTCTAACCTGTTGCCA (site GCGTGTCCTTG) | 0.335
GCGTTGCCTTGGGTTCTAACCTGTTGCCT (site GAGTTGCCTAG) | 0.073
GCGTTGCCTTGGGTTCTAACCTGTTGCCT (site GCGTTGCCTAG) | 0.213
GCGTTGCCTTGGGTTCTAACCTGTTGCCT (site GGGTTGCCTAG) | 0.0557
GCGTTGCCTTGGGTTCTAACCTGTTGCCT (site GTGTTGCCTAG) | 0.0893
GCTAGTCCTTGGGTTCTAACCTGTTGCTG (site GCTAGTCCTAC) | 0.537
GCTAGTCCTTGGGTTCTAACCTGTTGCTG (site GCTAGTCCTCA) | 0.83
GCTCAGGCTTGGGTTCTAACCTGTTGCCT (site GCTCAGACTAG) | 0.142
GCTCAGGCTTGGGTTCTAACCTGTTGCCT (site GCTCAGCCTAG) | 0.114
GCTCAGGCTTGGGTTCTAACCTGTTGCCT (site GCTCAGGCTAG) | 0.216
GCTCAGGCTTGGGTTCTAACCTGTTGCCT (site GCTCAGTCTAG) | 0.202
GCTCGTCCTTGGGTTCTAACCTGTTGCAT (site GCTCGTCCTAT) | 1.03
GCTCGTCCTTGGGTTCTAACCTGTTGCAT (site GCTGGACCTAT) | 0.0399
